# Assay results: paper PMC11633381 (mBio, 2024)
# Assays:
# SusA [1] = target: T1, SusA (Bacteroides thetaiotaomicron, UniProt Q8A1G0); assay: inhibition kinetics with pNP-G6 (αKi); also ITC binding to free enzyme; type: biochemical
# T1 construct: cloned starting with T23
# BoSusA (BoGH13BSus) [2] = target: T2, BoSusA (BoGH13BSus) (Bacteroides ovatus, UniProt A0ABU3INP3, D331N); assay: isothermal titration calorimetry; type: binding
# T2 construct: gene RO706_06385; cloned starting with A90 (A23 in SusA numbering)
# BoSusG (BoGH13ASus) = target: T3, BoSusG (BoGH13ASus) (Bacteroides ovatus, UniProt A0ABU3ISA0); assay: EnzChek fluorescent starch amylase assay; type: biochemical
# T3 construct: gene RO706_06355
# BoGH97D = target: T4, BoGH97D (Bacteroides ovatus, UniProt A0ABU3IP51); assay: competitive inhibition kinetics with pNP-Glc; type: biochemical
# T4 construct: gene RO706_07160; N-terminal 6x His tag, recombinant
# SusA [3] = target: T5, SusA (Bacteroides thetaiotaomicron, UniProt Q8A1G0, D331N); assay: isothermal titration calorimetry; type: binding
# T5 construct: cloned starting with T23
# BoSusB (BoGH97CSus) = target: T6, BoSusB (BoGH97CSus) (Bacteroides ovatus, UniProt A0AAN3A6N4); assay: co-crystal structure; competitive inhibition kinetics with pNP-Glc; type: biochemical
# T6 construct: gene BACOVA_03519; N-terminal 6x His tag, recombinant
# BtGH97H = target: T7, BtGH97H (Bacteroides thetaiotaomicron, UniProt Q89YZ9); assay: competitive inhibition kinetics with pNP-Glc; type: biochemical
# T7 construct: gene BT_4581; N-terminal 6x His tag, recombinant
# BoSusA (BoGH13BSus) [4] = target: T8, BoSusA (BoGH13BSus) (Bacteroides ovatus, UniProt A0ABU3INP3); assay: inhibition kinetics with pNP-G6 (αKi); also ITC binding to free enzyme; type: biochemical; conditions: read-out: Inhibition constant
# T8 construct: gene RO706_06385; cloned starting with A90 (A23 in SusA numbering)
smiles,measurement,setting,value
C[C@H]1O[C@H](O[C@H]2[C@H](O)[C@@H](O)[C@@H](O[C@H]3[C@H](O)[C@@H](O)C(O)O[C@@H]3CO)O[C@@H]2CO)[C@H](O)[C@@H](O)[C@@H]1N[C@H]1C=C(CO)[C@@H](O)[C@H](O)[C@H]1O (some centres unmarked) [acarbose],Ki,SusA [1],94.7 ± 6.9 nM
same,isothermal titration calorimetry,BoSusA (BoGH13BSus) [2],"Wild-type enzyme has two acarbose-binding sites, whereas a catalytically inert variant of each enzyme (D331N) has one"
same,IC50,BoSusG (BoGH13ASus),2200 ± 350 nM
same,Ki,BoGH97D,134 ± 22.4 nM
same,isothermal titration calorimetry,SusA [3],"Wild-type enzyme has two acarbose-binding sites, whereas a catalytically inert variant of each enzyme (D331N) has one"
same,Ki,BoSusB (BoGH97CSus),69.3 ± 8.9 nM
same,Ki,BtGH97H,162 ± 24.3 nM
same,Ki,BoSusA (BoGH13BSus) [4],123 ± 9.2 nM
